Results on 57 molecules are retold here after patent US12459925B2, “Sulphonyl urea derivatives as NLRP3 inflammasome modulators” (priority 2017, dated 2025).

pIC50: −log10 of the molar value.

The first assay relates to IL-1β release upon NLRP3 activation in peripheral blood mononuclear cells (PBMC). The experiment in a line: PBMC IC50 determination assay (IL-1β release, Protocol A ELISA / Protocol B HTRF). The following applies: Homo sapiens, PBMC, read-out: Average PBMC IC50 (μM). In kind it is cell-based. The method, then: The compounds of the present disclosure were tested for their inhibitory activity against IL-1β release upon NLRP3 activation in peripheral blood mononuclear cells (PBMC).
Isolated cells were seeded into the wells of a 96-well plate and incubated for 3 h with lipopolysaccharide (LPS). Following medium exchange, the compounds of the present disclosure were added (a single compound per well) and the cells were incubated for 30 min. Next, the cells were stimulated either with ATP (5 mM) or nigericin (10 μM) for 1 h and the cell culture media from the wells were collected for further analysis.
The release of IL1-β into the media was determined by a quantitative detection of IL-1β in the media using an IL-1β enzyme-linked immunosorbent assay (ELISA) Ready-SET-Go!, eBioscience cat. […] Subsequently, plates were blocked with blocking buffer for 1 h at room temperature (rt) and after washing with a buffer (PBS with 0.05% Tween-20) incubated with protein standard and culture media. […] Plates were washed and incubated with HRP-streptavidin for 30 min at rt and washed again. The signal was developed after addition of 3,3′,5,5′-tetramethylbenzidine-peroxidase (TMB) until colour appeared and the reaction was stopped by 2 M H2SO4. A microplate spectrophotometer (BioTek) was used to detect signals with 450 nm. The detection range of IL-1β ELISA was 2-150 ng/ml.
Isolated cells were seeded into the wells (280,000 cells/well) of a 96-well plate and incubated for 3 h with lipopolysaccharide (LPS, 1 μg/ml diluted 1000× from a 1 mg/ml stock solution). The compounds of the present disclosure were added (a single compound per well) and the cells were incubated for 30 min. Next, the cells were stimulated with ATP (5 mM final concentration diluted 20× from a 100 mM stock solution) for 1 h and the cell culture media from the wells were collected for further analysis.
The release of IL-1β into the media was determined by quantitative detection of IL-1β in the media using HTRF®, CisBio cat. No. 62HIL1BPEH. Briefly, cell culture supernatant were dispensed directly into the assay plate containing antibodies labelled with the HTRF® donor and acceptor. A microplate spectrophotometer (BMG) was used to detect signals at 655 nm and 620 nm. The detection range of IL-1β HTRF® was 39-6500 pg/ml.
For orientation: An ELISA detects its analyte on a solid surface through an enzyme-linked reagent.
A word on the IC50: it is the point on the concentration scale where inhibition reaches its midpoint. As to `CN1CCC(N(c2cn[nH]c2)S(=O)(=O)NC(=O)Nc2c3c(cc4c2CCC4)CCC3)CC1` [Compound 40], the half-inhibitory concentration (IC50) was in the range of 1 to 3 µM.
In the case of `Cn1cc(N(C2CCN(CC(F)F)CC2)S(=O)(=O)NC(=O)Nc2c3c(cc4c2CCC4)CCC3)cn1` [Compound 45], the IC50 was 1 to 3 µM.
As to `O=C(Nc1c2c(cc3c1CCC3)CCC2)NS(=O)(=O)N(c1cn[nH]c1)C1CCOCC1` [Compound 48], the IC50 was below 1 µM.
Regarding `Cn1cc(N(C2CN3CCC2CC3)S(=O)(=O)NC(=O)Nc2c3c(cc4c2CCC4)CCC3)cn1` (stereo not drawn) [Compound 54], the concentration for half-maximal inhibition (IC50) was below 1 µM.

Still in this assay, the particulars now being: Homo sapiens; PBMC primed with LPS 3 h, compound 30 min, stimulated with ATP (5 mM) or nigericin (10 μM) 1 h; IL-1β in media; read-out: Average PBMC IC50.
For orientation: pIC50 means the negative decadic logarithm of the IC50, by convention in mol/L. Regarding `Cn1cc(N(C2CCOCC2)S(=O)(=O)NC(=O)Nc2c3c(cc4c2CCC4)CCC3)cn1` [Compound 1], the pIC50 is above 6.00.
With `CN1CCC(N(c2cnn(C)c2)S(=O)(=O)NC(=O)Nc2c3c(cc4c2CCC4)CCC3)CC1` [Compound 2], the negative logarithm of the IC50 (pIC50) is above 6.00.
On to `CN1CCC(CN(c2cnn(C)c2)S(=O)(=O)NC(=O)Nc2c3c(cc4c2CCC4)CCC3)CC1` [Compound 3], for which the negative logarithm of the IC50 (pIC50) is 5.52 to 6.00.
The same measure, in the same setting: in the case of `CC(C)n1cc(N(C2CCOCC2)S(=O)(=O)NC(=O)Nc2c3c(cc4c2CCC4)CCC3)cn1` [Compound 4] it was above 6.00.
With `CC(C)n1cc(N(C2CCN(C)CC2)S(=O)(=O)NC(=O)Nc2c3c(cc4c2CCC4)CCC3)cn1` [Compound 5], the negative-log IC50 (pIC50) was above 6.00.
`CCn1cc(N(C2CCOCC2)S(=O)(=O)NC(=O)Nc2c3c(cc4c2CCC4)CCC3)cn1` [Compound 6]: the negative logarithm of the IC50 (pIC50) was above 6.00.
As to `CCn1cc(N(C2CCN(C)CC2)S(=O)(=O)NC(=O)Nc2c3c(cc4c2CCC4)CCC3)cn1` [Compound 7], the negative-log IC50 (pIC50) was above 6.00.
In the case of `Cn1cc(N(C2CCOC2)S(=O)(=O)NC(=O)Nc2c3c(cc4c2CCC4)CCC3)cn1` (stereo not drawn) [Compound 8], the negative-log IC50 (pIC50) is above 6.00.
With `Cn1ccc(N(C2CCOCC2)S(=O)(=O)NC(=O)Nc2c3c(cc4c2CCC4)CCC3)n1` [Compound 9], the pIC50 is above 6.00.
For the molecule `Cc1c(N(C2CCOCC2)S(=O)(=O)NC(=O)Nc2c3c(cc4c2CCC4)CCC3)cnn1C` [Compound 10], the negative logarithm of the IC50 (pIC50) is above 6.00.
The same measure, in the same setting: in the case of `Cc1nn(C)c(C)c1N(C1CCOCC1)S(=O)(=O)NC(=O)Nc1c2c(cc3c1CCC3)CCC2` [Compound 11] it was above 6.00; in that of `Cc1cc(N(C2CCOCC2)S(=O)(=O)NC(=O)Nc2c3c(cc4c2CCC4)CCC3)no1` [Compound 12], 5.00 to 5.52; in that of `O=C(Nc1c2c(cc3c1CCC3)CCC2)NS(=O)(=O)N(c1cnoc1)C1CCOCC1` [Compound 13], above 6.00.
As for `Cc1c(N(C2CCN(C)CC2)S(=O)(=O)NC(=O)Nc2c3c(cc4c2CCC4)CCC3)cnn1C` [Compound 14], the negative-log IC50 (pIC50) was above 6.00.
On the same count and under the same terms, under `Cc1nn(C)c(C)c1N(C1CCN(C)CC1)S(=O)(=O)NC(=O)Nc1c2c(cc3c1CCC3)CCC2` [Compound 15] stands 5.52 to 6.00; under `Cn1cc(N(CC2COC2)S(=O)(=O)NC(=O)Nc2c3c(cc4c2CCC4)CCC3)cn1` [Compound 16], above 6.00; under `O=C(Nc1c2c(cc3c1CCC3)CCC2)NS(=O)(=O)N(c1cncnc1)C1CCOCC1` [Compound 17], above 6.00.
As for `Cc1cc(N(C2CCOCC2)S(=O)(=O)NC(=O)Nc2c3c(cc4c2CCC4)CCC3)on1` [Compound 18], the negative-log IC50 (pIC50) is above 6.00.
Regarding `Cn1cnc(N(C2CCOCC2)S(=O)(=O)NC(=O)Nc2c3c(cc4c2CCC4)CCC3)n1` [Compound 19], the pIC50 was 5.00 to 5.52.
As to `CN1CCC(N(c2ccn(C)n2)S(=O)(=O)NC(=O)Nc2c3c(cc4c2CCC4)CCC3)CC1` [Compound 20], the negative logarithm of the IC50 (pIC50) was above 6.00.
For the molecule `Cn1cnc(N(C2CCOCC2)S(=O)(=O)NC(=O)Nc2c3c(cc4c2CCC4)CCC3)c1` [Compound 21], the negative-log IC50 (pIC50) was 5.00 to 5.52.
Consider `Cn1cc(N(C2CCCOC2)S(=O)(=O)NC(=O)Nc2c3c(cc4c2CCC4)CCC3)cn1` (stereo not drawn) [Compound 22], for which the negative logarithm of the IC50 (pIC50) is above 6.00.
In the case of `CN1CCCC(N(c2cnn(C)c2)S(=O)(=O)NC(=O)Nc2c3c(cc4c2CCC4)CCC3)C1` (stereo not drawn) [Compound 23], the pIC50 was above 6.00.
On to `CN1CCC(N(c2cnn(C)c2)S(=O)(=O)NC(=O)Nc2c3c(cc4c2CCC4)CCC3)C1` (stereo not drawn) [Compound 24], for which the pIC50 is above 6.00.
In the case of `O=C(Nc1c2c(cc3c1CCC3)CCC2)NS(=O)(=O)N(c1cnn(C(F)F)c1)C1CCOCC1` [Compound 25], the pIC50 was above 6.00.
Consider `O=C(Nc1c2c(cc3c1CCC3)CCC2)NS(=O)(=O)N(c1cnn(CC(F)(F)F)c1)C1CCOCC1` [Compound 26], for which the negative-log IC50 (pIC50) was above 6.00.
As to `COCn1cc(N(C2CCOCC2)S(=O)(=O)NC(=O)Nc2c3c(cc4c2CCC4)CCC3)cn1` [Compound 27], the negative-log IC50 (pIC50) was above 6.00.
On to `COCn1cc(N(C2CCN(C)CC2)S(=O)(=O)NC(=O)Nc2c3c(cc4c2CCC4)CCC3)cn1` [Compound 28], for which the pIC50 was above 6.00.
With `COCCn1cc(N(C2CCOCC2)S(=O)(=O)NC(=O)Nc2c3c(cc4c2CCC4)CCC3)cn1` [Compound 29], the negative logarithm of the IC50 (pIC50) was above 6.00.
The same measure, in the same setting: in the case of `N#CCn1cc(N(C2CCOCC2)S(=O)(=O)NC(=O)Nc2c3c(cc4c2CCC4)CCC3)cn1` [Compound 30] it was above 6.00; in that of `CN1CCC(N(c2cnn(CC#N)c2)S(=O)(=O)NC(=O)Nc2c3c(cc4c2CCC4)CCC3)CC1` [Compound 31], above 6.00; in that of `CCN1CCC(N(c2cnn(C)c2)S(=O)(=O)NC(=O)Nc2c3c(cc4c2CCC4)CCC3)CC1` [Compound 32], above 6.00.
For the molecule `CC(C)N1CCC(N(c2cnn(C)c2)S(=O)(=O)NC(=O)Nc2c3c(cc4c2CCC4)CCC3)CC1` [Compound 33], the pIC50 was 5.52 to 6.00.
On to `CN1CCC(N(c2cnn(C(F)F)c2)S(=O)(=O)NC(=O)Nc2c3c(cc4c2CCC4)CCC3)CC1` [Compound 34], for which the negative logarithm of the IC50 (pIC50) is above 6.00.
For `O=C(Nc1c2c(cc3c1CCC3)CCC2)NS(=O)(=O)N(c1cnn(CC(F)F)c1)C1CCOCC1` [Compound 35], the negative-log IC50 (pIC50) is above 6.00.
With `CN1CCC(N(c2cnn(CC(F)F)c2)S(=O)(=O)NC(=O)Nc2c3c(cc4c2CCC4)CCC3)CC1` [Compound 36], the pIC50 is above 6.00.
The same measure, in the same setting: under `CN1CCC(N(c2cnn(CC(F)(F)F)c2)S(=O)(=O)NC(=O)Nc2c3c(cc4c2CCC4)CCC3)CC1` [Compound 37] stands above 6.00; under `COCCn1cc(N(C2CCN(C)CC2)S(=O)(=O)NC(=O)Nc2c3c(cc4c2CCC4)CCC3)cn1` [Compound 38], above 6.00.
Turning to `CN1CCC(N(c2cnn(C3CC3)c2)S(=O)(=O)NC(=O)Nc2c3c(cc4c2CCC4)CCC3)CC1` [Compound 39], the pIC50 is above 6.00.
Regarding `O=C(Nc1c2c(cc3c1CCC3)CCC2)NS(=O)(=O)N(c1cnn(C2COC2)c1)C1CCOCC1` [Compound 41], the negative-log IC50 (pIC50) was above 6.00.
In the case of `CN1CCC(N(c2cnn(C3COC3)c2)S(=O)(=O)NC(=O)Nc2c3c(cc4c2CCC4)CCC3)CC1` [Compound 42], the pIC50 is above 6.00.
With `CN(C)CCn1cc(N(C2CCOCC2)S(=O)(=O)NC(=O)Nc2c3c(cc4c2CCC4)CCC3)cn1` [Compound 43], the pIC50 is above 6.00.
In the case of `CN1CCC(N(c2cnn(C3CCC3)c2)S(=O)(=O)NC(=O)Nc2c3c(cc4c2CCC4)CCC3)CC1` [Compound 44], the negative-log IC50 (pIC50) is above 6.00.
Regarding `Cn1cc(N(CCN2CCOCC2)S(=O)(=O)NC(=O)Nc2c3c(cc4c2CCC4)CCC3)cn1` [Compound 46], the pIC50 is above 6.00.
Regarding `CN1CCC(N(c2cnn(C)c2)S(=O)(=O)NC(=O)Nc2c3c(cc4c2CCC4)CCC3)CC1=O` (stereo not drawn) [Compound 47], the pIC50 was 5.52 to 6.00.
As to `CC(C)c1cc(NC(=O)NS(=O)(=O)N(c2cnn(C)c2)C2CCN(C)CC2)cc(C(C)C)c1` [Compound 49], the negative-log IC50 (pIC50) is above 6.00.
In the case of `CCN1CCC(N(c2cnn(C)c2)S(=O)(=O)NC(=O)Nc2c3c(cc4c2CCC4)CCC3)C1` (stereo not drawn) [Compound 50], the pIC50 was above 6.00.
Take `CC(C)N1CCC(N(c2cnn(C)c2)S(=O)(=O)NC(=O)Nc2c3c(cc4c2CCC4)CCC3)C1` (stereo not drawn) [Compound 51]: the pIC50 is above 6.00.
As for `CC(C)N1CCCC(N(c2cnn(C)c2)S(=O)(=O)NC(=O)Nc2c3c(cc4c2CCC4)CCC3)C1` (stereo not drawn) [Compound 52], the pIC50 is above 6.00.
Same read-out and setting: in the case of `CCc1cc(CC)cc(NC(=O)NS(=O)(=O)N(c2cnn(C)c2)C2CCN(C)CC2)c1` [Compound 53] it was above 6.00; in that of `CC(C)n1cc(N(C2CCCN(C)C2)S(=O)(=O)NC(=O)Nc2c3c(cc4c2CCC4)CCC3)cn1` (stereo not drawn) [Compound 55], above 6.00; in that of `CC(C)n1cc(N(C2CCN(C)C2)S(=O)(=O)NC(=O)Nc2c3c(cc4c2CCC4)CCC3)cn1` (stereo not drawn) [Compound 56], above 6.00.
For the molecule `CN1CCC(CN(c2cnn(C)c2)S(=O)(=O)NC(=O)Nc2c3c(cc4c2CCC4)CCC3)C1` (stereo not drawn) [Compound 57], the negative logarithm of the IC50 (pIC50) is above 6.00.
